As usually defined, the IC50 is the concentration that inhibits the measured activity by half. By EC50 is commonly meant the midpoint of the concentration-response curve.

Among the data in patent US20230149409A1, “TREATMENT OF HUMAN PAPILLOMAVIRUS-ASSOCIATED CANCERS BY PD-L1 INHIBITORS” (priority 2021, published 2023) are IC50 and EC50 values, retold here.

Assay [1] deals with T1, PD-⅟PD-L1 (recombinant human PD-L1 protein and human PD-1 protein) (Homo sapiens, UniProt Q9NZQ7).
T1 construct: Recombinant human PD-L1 protein (19-238) with a His-tag at the C-terminus; purchased AcroBiosystems PD1-H5229 (PD-L1); PD1-H5257 (PD-1)
Description: Homogeneous Time-Resolved Fluorescence (HTRF) PD-1/PD-L1 binding assay. The settings on record: 3 nM PD1, 10 nM PD-L1, 25° C., PBS pH 7.4. How it is done: Homogeneous Time-Resolved Fluorescence (HTRF) PD-⅟PD-L1 Binding Assay
The assays were conducted in a standard black 384-well polystyrene plate with a final volume of 20 uL. Inhibitors were first serially diluted in DMSO and then added to the plate wells before the addition of other reaction components. The final concentration of DMSO in the assay was 1%. The assays were carried out at 25° C. in the PBS buffer (pH 7.4) with 0.05% Tween-20 and 0.1% BSA. […] PD-L1 and PD-1 proteins were diluted in the assay buffer and 10 uL was added to the plate well. Plates were centrifuged and proteins were preincubated with inhibitors for 40 minutes. The incubation was followed by the addition of 10 uL of HTRF detection buffer supplemented with Europium cryptate-labeled anti-human IgG (PerkinElmer-AD0212) specific for Fc and anti-His antibody conjugated to SureLight®-Allophycocyanin (APC, PerkinElmer-AD0059H). […] Final concentrations in the assay were - 3 nM PD1, 10 nM PD-L1, 1 nM europium anti-human IgG and 20 nM anti-His-Allophycocyanin. IC50 determination was performed by fitting the curve of percent control activity versus the log of the inhibitor concentration using the GraphPad Prism 5.0 software.
For orientation: Time-resolved FRET reads energy transfer from a long-lived donor to a nearby acceptor.

The subject of assay [2] is PD-L1 (U2OS/PD-L1 cells, Jurkat-PD-1-SHP cells). Briefly: Src Homology Region 2 Domain-containing Phosphatase (SHP) assay. Format: cell-based. The settings on record: Homo sapiens; U2OS/PD-L1 + Jurkat-PD-1-SHP cells, 2 hours. How it is done:
Example 1B. Src Homology Region 2 Domain-containing Phosphatase (SHP) Assay
U2OS/PD-L1 cells (DiscoveRx Corporation) were maintained in McCoy’s 5A medium with addition of 10% FBS, 0.25 µg/mL Puromycin. After removing the culture media, the cell medium was replaced with assay medium (RPMI1640 medium with 1% FBS). The U2OS/PD-L1 cells were then added in 384-well black clear bottom assay plate (CELLCOAT® Tissue Culture Plates, Greiner Bio-One) at 5000 cells per well in 20 uL assay medium. Test compounds were prepared by serial dilution in DMSO and 125 nL compound were first transferred to the 384 REMP plate well (Thermofisher) by ECHO liquid handler (Labcyte) followed with addition of 27.5 uL assay medium. 5 µL/well compounds in the assay medium were transferred to the cell plate with 0.05% DMSO in the final assay at 0.25 µM. Jurkat-PD-1-SHP cells (DiscoveRx Corporation) were cultured in RPMI1640 medium supplemented with 10% FBS, 250 µg/mL Hygromycin B, 500 µg/mL G418. After the replacement of culture media with assay medium, 5,000 Jurkat-PD-1-SHP cells in 20 µL were dispensed into each well. The assay plate was incubated at 37° C., 5% CO2 for 2 hours before 2.5 uL PathHunter reagent 1 (DiscoveRx Corporation) were added to each well. The assay plate was shaken for 1 min at 350 rpm in the dark followed with addition of 10 uL PathHunter reagent 2 (DiscoveRx Corporation). Chemiluminescent signal was recorded with TopCount reader (Perkin Elmer) after incubation at room temperature for 1 hour. Wells with DMSO were served as the positive controls and wells containing no cells were used as negative controls. IC50 determination was performed by fitting the curve of percentage of control activity versus the log of the compound concentration using the GraphPad Prism 6.0 software.

In assay [3] the test system is PD-L1 (PD-L1 aAPC/CHO-K1 cells, Jurkat-PD-1-NFAT effector cells). Description: Nuclear Factor of Activated T-cells (NFAT) assay. Format: cell-based. The settings on record: Cricetulus griseus; PD-L1 aAPC/CHO-K1 + Jurkat-PD-1-NFAT cells, 24 hours. The method, then: Nuclear Factor of Activated T-cells (NFAT) Assay
PD-L1 aAPC/CHO-K1cells (Promega) were maintained in F-12 medium with addition of 10% FBS, 200 µg/mL Hygromycin B, 250 µg/mL Geneticin (G418). […] The culture media of PD-L1 aAPC/CHO-K1 cells were first replaced with assay medium (RPMI1640 medium with 1% FBS). The PD-L1 aAPC/CHO-K1cells were then added in a white 384-well white clear bottom assay plate (CELLCOAT® Tissue Culture Plates, Greiner Bio-One) at 8000 per well in 10 uL assay medium. […] 5 uL compounds in the assay medium were transferred to the cells with 0.4% DMSO in the final assay at 2 µM. After removing the culture media, 10,000 Jurkat-PD-1-NFAT effector cells in 5 µL assay medium was dispensed into each well. The assay plate was incubated at 37° C., 5% CO2 for 24 hours. […] After 8 minutes incubation at room temperature, luminescence was read at with Pherastar microplate reader (BMG Labtech). The fold of induction (FOI) was calculated based on the ratio of luminescence normalized to the DMSO wells within each assay plate. The maximum percentage of induction was reported based on the ratio between the highest FOI of each compound and the maximum FOI of control compound within each assay plate. Wells with DMSO were served as the negative controls and wells containing control compound with the highest FOI were used as positive controls. EC50 determination was performed by fitting the curve of percent control activity versus the log of the compound concentration using the GraphPad Prism 6.0 software.

Assay [4] deals with T2, PD-L1 on CD14+ cells in human whole blood (Homo sapiens, UniProt Q9NZQ7).
T2 construct: Cells were gated on CD14+ (BD Biosciences) and PD-L1 expression determined by mean fluorescence intensity; host or cells: CD14+ cells in normal human whole blood, stimulated with human interferon gamma
Briefly: PD-L1 whole blood internalization assay. The settings on record: 1 ng/mL interferon γ, CD14+ gated, 24 hour. Format: cell-based. How it is done:
PD-L1 Whole Blood Internalization Assay
To determine PD-L1 internalization in human whole blood, normal human blood (Biological Specialty Corp, Colmar. PA) was incubated in the presence or absence of a concentration range of test compounds and 1 ng/mL human interferon γ (R&D Systems Inc. Minn. MN) in a 96 well “2 mL Assay Block” (Corning, Corning NY) for 18-20 hours at 37 °C. Blood was then stained with PD-L1 (MIH1, eBioscience; or BD Biosciences San Jose, CA), CD14 (Life Technologies, Carlsbad, CA) for 30 minutes in the dark at room temperature. Whole Blood/red cells were lysed/fixed (lysis buffer BD Biosciences) for 5 minutes at 37 °C in the dark and then centrifuged at 1600 RPM for 5 minutes. Cells were resuspended in Stain Buffer (BD Bioscience, San Jose, CA) and transferred into 96 well round bottom plates (Coming). Cells were gated on CD14+ (BD Biosciences) and PD-L1 expression determined by mean fluorescence intensity (MFI) (BD LSRFortessa® X-20). IC50 determination was performed by fitting the curve of compound percent inhibition versus the log of the compound concentration using the GraphPad Prism 7.0 software.

T1 sequence (Q9NZQ7 19-238): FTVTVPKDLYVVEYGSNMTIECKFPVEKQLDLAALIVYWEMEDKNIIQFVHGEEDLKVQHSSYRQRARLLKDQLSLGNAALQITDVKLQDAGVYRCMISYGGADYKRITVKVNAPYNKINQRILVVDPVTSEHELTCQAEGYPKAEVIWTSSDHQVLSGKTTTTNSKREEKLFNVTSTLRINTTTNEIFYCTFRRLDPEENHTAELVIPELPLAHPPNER
T2 sequence (Q9NZQ7 19-290): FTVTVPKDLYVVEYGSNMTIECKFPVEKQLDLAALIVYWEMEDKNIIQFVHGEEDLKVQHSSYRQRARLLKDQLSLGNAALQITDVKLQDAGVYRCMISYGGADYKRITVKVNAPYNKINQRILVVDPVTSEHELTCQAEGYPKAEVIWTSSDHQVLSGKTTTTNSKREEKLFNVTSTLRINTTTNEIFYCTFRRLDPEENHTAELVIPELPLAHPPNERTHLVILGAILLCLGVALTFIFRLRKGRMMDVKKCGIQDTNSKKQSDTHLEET

Regarding `Cc1c(NC(=O)c2nc3c(n2C)CCN(C)C3)cccc1-c1cccc(NC(=O)c2nc3c(n2C)CCN(C[C@H]2CC[C@@H](C(=O)O)CC2)C3)c1Cl` [Compound 18, cis-4-((2-((2-chloro-3′-(1,5-dimethyl-4,5,6,7-tetrahydro-1H-imidazo[4,5-c]pyfidine-2-caiboxamido)-2′-methyl-[1,1′-biphenyl]-3-yl)carbamoyl)-1-methyl-1,4,6,7-tetrahydro-5H-imidazo[4,5-c]pyridin-5-yl)methyl)cyclohexane-1-carboxylic acid], the values for the IC50 in assay [1], in assay [2] and in assay [4] were less than 10 nM, less than 10 nM and less than 100 nM, respectively. Moreover, the EC50 in assay [3] is less than 100 nM.

In the case of `CN1CCc2c(nc(C(=O)Nc3cccc(-c4cccc(NC(=O)c5nc6c(n5C)CCN(CC[C@H]5CC[C@H](C(=O)O)CC5)C6)c4C#N)c3Cl)n2C)C1` [Compound 19, trans-4-(2-(2-((2′-chloro-2-cyano-3′-(1,5-dimethyl-4,5,6,7-tetrahydro-1H-imidazo[4,5-c]pyridine-2-carboxamido)-[1,1′-biphenyl]-3yl)carbamoyl)-1-methyl-1,4,6,7-tetrahydro-5H-imidazo[4,5-c]pyridin-5-yl)ethyl)cyclohexane-1-carboxylic acid], the IC50 is less than 10 nM in assay [1], less than 10 nM in assay [2] and less than 100 nM in assay [4]. In assay [3], the EC50 was less than 100 nM.

Take `CCN(C)CC(=O)N1Cc2nc(-c3cccc(-c4cccc(NC(=O)c5nc6c(n5C)CCN(C[C@H]5CC[C@H](C(=O)O)CC5)C6)c4Cl)c3C)sc2C1` [Compound 20, trans-4-((2-(2-chloro-3′-(5-(2-(ethyl(methyl)amino)acetyl)-5,6-dihydro-4H-pyrrolo[3,4-d]thiazol-2-yl)-2′-methylbipheiryl-3-ylcarbamoyl)-1-methyl-6,7-dihydro-1H-imidazo [4,5-c]pyridin-5 (4H)-yl)methyl)cyclohexane-1-carboxylic acid]: the IC50 was less than 10 nM in assay [1], less than 10 nM in assay [2] and less than 500 nM in assay [4]. The EC50 in assay [3] was less than 500 nM.

`CCN(C)CC(=O)N1Cc2nc(-c3cccc(-c4cccc(NC(=O)c5nc6c(n5C)CCN(C[C@H]5CC[C@@H](C(=O)O)CC5)C6)c4Cl)c3C)sc2C1` [Compound 21, cis-4-((2-(2-chloro-3′-(5-(2-(ethyl(methyl)amino)acetyl)-5,6-dihydro-4H-pyrrolo[3,4-d]thiazol-2-yl)-2′-methylbiphenyl-3-ylcarbamoyl)-1-methyl-6,7-dihydro-1H-imidazo [4,5-c]pyridin-5 (4H)-yl)methyl)cyclohexane-1-carboxylic acid]: the IC50 is less than 10 nM in assay [1], less than 10 nM in assay [2] and less than 100 nM in assay [4]. Also, the EC50 in assay [3] is less than 100 nM.

Consider `CCN(C)CC(=O)N1Cc2nc(-c3cccc(-c4cccc(NC(=O)c5nc6c(n5C)CCN(CCC5CCC(C(=O)O)CC5)C6)c4Cl)c3C)sc2C1` (centres unmarked) [Compound 22, 4-(2-(2-(2-chloro-3′-(5-(2-(ethyl(methyl)amino)acetyl)-5,6-dihydro-4H-pyrrolo[3,4-d]thiazol-2-yl)-2′-methylbiphenyl-3-ylcarbamoyl)-1-methyl-6,7-dihydro-1H-imidazo[4,5-c]pyridin-5(4H)-yl)ethyl)cyclohexane-1-carboxylic acid], for which the figures for the IC50 in assay [1], in assay [2] and in assay [4] were less than 10 nM, less than 10 nM and less than 500 nM, respectively. Moreover, the EC50 in assay [3] was less than 100 nM.

For the molecule `Cc1c(-c2nc3c(s2)CN(C(=O)CN(C)C(C)C)C3)cccc1-c1cccc(NC(=O)c2nc3c(n2C)CCN(CCC2CCC(C(=O)O)CC2)C3)c1Cl` (centres unmarked) [Compound 23, 4-(2-(2-(2-chloro-3′-(5-(2-(isopropyl(methyl)amino)acetyl)-5,6-dihydro-4H-pyrrolo[3,4-d]thiazol-2-yl)-2′-methylbiphenyl-3-ylcarbamoyl)-1-methyl-6,7-dihydro-1H-imidazo[4,5-c]pyridin-5(4H)-yl)ethyl)cyclohexane-1-carboxylic acid], the IC50 in assay [1] is less than 10 nM; in assay [2], less than 10 nM; in assay [4], less than 100 nM. Besides, in assay [3], the EC50 was less than 100 nM.

For `C[C@@H](O)CN1CCc2c(nc(C(=O)Nc3cccc(-c4cccc(NC(=O)c5nc6c(n5C)CCN(CCC57CCC(C(=O)O)(CC5)C7)C6)c4Cl)c3Cl)n2C)C1` [Compound 29], the values for the IC50 in assay [1], in assay [2] and in assay [4] were less than 10 nM, less than 10 nM and less than 100 nM, respectively. The EC50 in assay [3] was less than 10 nM.

Consider `Cn1c(C(=O)Nc2cccc(-c3cccc(NC(=O)c4nc5c(n4C)CCN(CC46CCC(C(=O)O)(CC4)C6)C5)c3Cl)c2Cl)nc2c1CCN(CCC13CCC(C(=O)O)(CC1)C3)C2` [Compound 31, 4-((2-((3′-(5-(2-(4-carboxybicyclo[2.2.1]heptan-1-yl)ethyl)-1-methyl-4,5,6,7-tetrahydro-1H-imidazo[4,5-c]pyridine-2-carboxamido)-2,2′-dichloro-[1,1′-biphenyl]-3-yl)carbamoyl)-1-methyl-1,4,6,7-tetrahydro-5H-imidazo[4,5-c]pyridin-5-yl)methyl)bicyclo[2.2.1]heptane-1-carboxylic acid], for which the IC50 in assay [1] is less than 10 nM; in assay [2], less than 10 nM; in assay [4], less than 100 nM. Besides, the EC50 in assay [3] is less than 100 nM.
